Measurements: the supplement of paper PMC10307832

Tests used:
Assay in all cases: relative viability (nuclei count vs DMSO), 5 days (fraction); higher = more cells survive
[1] = compound: C1COCCN1C2=NC(=NC3=C2OC4=C3C=CC=N4)C5=CC(=CC=C5)NC(=O)C6=CN=C(C=C6)N + CS(=O)(=O)N1CCN(Cc2cc3nc(-c4cccc5[nH]ncc45)nc(N4CCOCC4)c3s2)CC1 [Pictilisib] (partner 1 µM)
Summary of the method: (§1)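 Cells from lung cancer lines were seeded into 1536-well plates and, one day later, dosed by pin tool. Treatments were either a single drug or a fixed dose of an anchor drug with five library-drug doses (not always all listed) in √10 steps. After 5 days, nuclei were stained in a one-step fixation (final 0.05% Triton X-100, 1% formaldehyde, 1 ug/ml Hoechst) and counted on 4× images, and relative viability is the treated-to-vehicle nuclei ratio, as the median of duplicate plates.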

[2] = compound: Nc1ccccc1NC(=O)c1ccc(CNC(=O)OCc2cccnc2)cc1 [Entinostat] + N=C(N)NC(=N)NCCc1ccccc1 [Phenformin] (partner 250 µM)
Summary of the method: as §1

[3] = compound: C1COCCN1C2=NC(=NC3=C2OC4=C3C=CC=N4)C5=CC(=CC=C5)NC(=O)C6=CN=C(C=C6)N + CC(=O)Nc1cccc(-n2c(=O)n(C3CC3)c(=O)c3c(Nc4ccc(I)cc4F)n(C)c(=O)c(C)c32)c1 [Trametinib] (partner 0.02 µM)
Summary of the method: as §1

[4] = compound: CN1CCC(CNc2ccc3ncc(-c4cccc(OC(F)(F)F)c4)n3n2)CC1 [SGI-1776] + Cc1nc(NC(=O)N2CCC[C@H]2C(N)=O)sc1-c1ccnc(C(C)(C)C(F)(F)F)c1 [Alpelisib] (partner 2 µM)
Summary of the method: as §1

Cell Line | relative viability ([1]; first compound 0.02 µM) | relative viability ([1]; first compound 0.06325 µM) | relative viability ([1]; first compound 0.2 µM) | relative viability ([1]; first compound 0.6325 µM) | relative viability ([1]; first compound 2 µM) | relative viability ([2]; first compound 0.02 µM) | relative viability ([2]; first compound 0.06325 µM) | relative viability ([2]; first compound 0.2 µM) | relative viability ([2]; first compound 0.6325 µM) | relative viability ([2]; first compound 2 µM) | relative viability ([3]; first compound 0.02 µM) | relative viability ([3]; first compound 0.06325 µM) | relative viability ([3]; first compound 0.2 µM) | relative viability ([3]; first compound 0.6325 µM) | relative viability ([3]; first compound 2 µM) | relative viability ([4]; first compound 0.08 µM) | relative viability ([4]; first compound 0.8 µM) | relative viability ([4]; first compound 2.53 µM) | relative viability ([4]; first compound 8 µM)
HCC-78 | 0.179 | 0.211 | 0.289 | 0.16 | 0.0668 | 0.819 | 0.751 | 0.55 | 0.329 | 0.27 | 0.926 | 0.836 | 0.899 | 0.756 | 0.566 | 0.37 | 0.333 | 0.315 | 0.248
HCC-366 | 0.0246 | 0.144 | 0.107 | 0.107 | 0.204 | 0.578 | 0.61 | 0.582 | 0.451 | 0.186 | 0.4 | 0.341 | 0.394 | 0.231 | 0.138 | 0.51 | 0.335 | 0.372 | 0.189
HCC-827 | 0.99 | 1.1 | 1.12 | 0.986 | 0.935 | 0.397 | 0.381 | 0.395 | 0.357 | 0.275 | 0.488 | 0.573 | 0.459 | 0.483 | 0.408 | 1.08 | 0.993 | 1.06 | 0.849
HOP-62 | 0.792 | 0.82 | 0.698 | 0.876 | 0.499 | 0.614 | 0.6 | 0.773 | 0.412 | 0.266 | 0.403 | 0.415 | 0.323 | 0.359 | 0.227 | 0.914 | 0.942 | 0.979 | 0.807
IA-LM | – | 0.301 | 0.319 | 0.353 | 0.182 | – | – | – | – | – | – | – | – | – | – | 0.883 | 0.977 | 0.764 | 0.874
LC-2-ad | 0.441 | 0.51 | 0.526 | 0.443 | 0.487 | 0.568 | 0.566 | 0.579 | 0.365 | 0.208 | 0.959 | 0.983 | 0.962 | 0.899 | 0.654 | 1.06 | 1 | 0.94 | 0.731
LCLC-97TM1 | – | 0.173 | 0.217 | 0.235 | 0.184 | 0.423 | 0.376 | 0.392 | 0.465 | 0.395 | 0.187 | 0.205 | 0.204 | 0.169 | 0.134 | 0.195 | 0.238 | 0.239 | 0.22
LCLC-103H | 0.533 | 0.647 | 0.555 | 0.678 | 0.551 | 0.36 | 0.379 | 0.331 | 0.265 | 0.229 | 0.66 | 0.693 | 0.693 | 0.62 | 0.479 | 0.996 | 0.862 | 0.939 | 0.924
LK-2 | 0.64 | 0.444 | 0.621 | 0.477 | 0.612 | 0.497 | 0.761 | 0.576 | 0.383 | 0.32 | 0.787 | 0.798 | 0.637 | 0.583 | 0.426 | 0.93 | 1.06 | 0.829 | 0.793
LOU-NH91 | 0.48 | 0.531 | 0.51 | 0.521 | 0.512 | 0.746 | 0.773 | 0.75 | 0.706 | 0.55 | 0.78 | 0.816 | 0.828 | 0.782 | 0.716 | 0.783 | 0.691 | 0.707 | 0.533
LU99A | 0.361 | 0.344 | 0.308 | 0.321 | 0.267 | 0.783 | 0.891 | 0.722 | 0.609 | 0.545 | 0.592 | 0.576 | 0.547 | 0.452 | 0.389 | 0.614 | 0.525 | 0.552 | 0.406
LXF-289 | 0.782 | 0.861 | 0.703 | 0.758 | 0.602 | 0.538 | 0.554 | 0.532 | 0.414 | 0.354 | 0.676 | 0.769 | 0.671 | 0.67 | 0.462 | 1 | 1.06 | 1.03 | 1
NCI-H23 | 0.473 | 0.504 | 0.409 | 0.432 | 0.32 | 0.71 | 0.667 | 0.796 | 0.762 | 0.501 | 0.337 | 0.322 | 0.359 | 0.409 | 0.197 | 0.722 | 0.725 | 0.616 | 0.57
NCI-H522 | – | – | – | – | – | 0.69 | 0.572 | 0.695 | 0.801 | 0.577 | 0.797 | 0.901 | 0.681 | 0.758 | 0.592 | – | – | – | –
NCI-H1299 | 0.866 | 0.943 | 0.808 | 0.791 | 0.442 | – | – | – | – | – | – | – | – | – | – | 1.11 | 1.01 | 1.07 | 1.08
NCI-H1563 | 0.632 | 0.618 | 0.622 | 0.626 | 0.604 | 0.76 | 0.646 | 0.714 | 0.669 | 0.607 | – | – | – | – | – | 0.928 | 1 | 0.874 | 0.695
NCI-H1623 | – | – | – | – | – | 0.663 | 0.623 | 0.556 | 0.489 | 0.422 | – | – | – | – | – | – | – | – | –
NCI-H1648 | – | – | – | – | – | – | – | – | – | – | 0.54 | 0.534 | 0.456 | 0.405 | 0.482 | – | – | – | –
NCI-H1650 | 0.505 | 0.588 | 0.526 | 0.592 | 0.483 | 0.54 | 0.498 | 0.49 | 0.419 | 0.256 | 0.535 | 0.497 | 0.575 | 0.526 | 0.39 | – | – | – | –
NCI-H1703 | 0.23 | 0.255 | 0.239 | 0.251 | 0.232 | – | – | – | – | – | – | – | – | – | – | 0.367 | 0.312 | 0.299 | 0.165
NCI-H2342 | – | – | – | – | – | 0.6 | 0.639 | 0.518 | 0.584 | 0.468 | 0.743 | 0.963 | 0.807 | 0.805 | 0.79 | – | – | – | –
SW 900 | – | – | – | – | – | 0.653 | 0.759 | 0.686 | 0.369 | 0.306 | 0.596 | 0.965 | 0.807 | 0.583 | 0.513 | – | – | – | –
